Legend:
Assay type in all cases: cell-based
K562 cells = test: Cell growth inhibitory activity assay (CellTiter-Glo), K562 cells; details: Homo sapiens, 72 h, CTG cell viability
Procedure, shortened: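 Growth inhibition of human K562 cells, sourced from Nanjing Kebai (CBP60529), was assessed with Promega's CellTiter-Glo kit, which measures viability through ATP quantification. Log-phase cells went into the inner wells of 96-well plates, with PBS in edge wells, incubated overnight at 37 °C and 5% CO2, then exposed to serially diluted compound for 72 h.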

Ba/F3 parental cells = test: Cell growth inhibitory activity assay (CellTiter-Glo), Ba/F3 parental cells; details: Mus musculus, BaF3, 72 h, CTG cell viability, read-out: IC50 Ba/F3 BCR-ABL1 Parental
Procedure, shortened: (§1)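 Ba/F3 lines stably transduced by lentivirus with WT or mutant BCR-ABL1, alongside untransduced parental Ba/F3, were seeded and incubated overnight at 37 °C, 5% CO2, then exposed to serially diluted compound for 72 h. Viability was read as ATP by CellTiter-Glo luminescence against a day-of-dosing T0 plate; IC50 from four-parameter nonlinear fit.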

Ba/F3 BCR-ABL1 WT = target: T1, Ba/F3 BCR-ABL1 WT (Homo sapiens, UniProt P00519+P11274); test: Cell growth inhibitory activity assay (CellTiter-Glo), Ba/F3 BCR-ABL1 WT cells; details: 72 h, CTG cell viability
T1 construct: BCR (N-terminal fusion partner of the oncoprotein); expressed in transfected cells; host or cells: Ba/F3 (lentiviral transduction, monoclonal line)
Procedure, shortened: as §1

Ba/F3 BCR-ABL1 T315I = target: T2, Ba/F3 BCR-ABL1 T315I (Homo sapiens, UniProt P00519+P11274, T315I); test: Cell growth inhibitory activity assay (CellTiter-Glo), Ba/F3 BCR-ABL1 T315I cells; details: 72 h, CTG cell viability
T2 construct: BCR (N-terminal fusion partner of the oncoprotein); expressed in transfected cells; host or cells: Ba/F3 (lentiviral transduction, monoclonal line)
Procedure, shortened: as §1

| Compound | IC50 (K562 cells) | IC50 (Ba/F3 parental cells) | IC50 (Ba/F3 BCR-ABL1 WT) | IC50 (Ba/F3 BCR-ABL1 T315I) |
| --- | --- | --- | --- | --- |
| C[C@@H]1COCc2nc3cc(C(=O)Nc4ccc(OC(F)(F)Cl)cc4)cc(-c4ccc5c(c4)-c4nn(-c6ncccn6)cc4C5)c3n21 [T-109] | ≤ 5 nM | > 1000 nM | ≤ 5 nM | ≤ 5 nM |
| CC(C)n1cc2c(n1)-c1cc(-c3cc(C(=O)Nc4ccc(OC(F)(F)Cl)cc4)cc4nc5n(c34)[C@H](C)COC5)ccc1C2 [T-110, (R)-N-(4-(chlorodifluoromethoxy)phenyl)-6-(2-isopropyl-2,4-dihydroindeno[1,2-c]pyrazol-7-yl)-4-methyl-3,4-dihydro-1H-benzo[4,5]imidazo[2,1-c][1,4]oxazine-8-carboxamide] | ≤ 5 nM | > 1000 nM | ≤ 5 nM | 5 to 50 nM |
| C[C@@H]1COCc2nc3cc(C(=O)Nc4ccc(OC(F)(F)Cl)cc4)cc(-c4ccc5c(c4)-c4nc(N)sc4C5)c3n21 [T-111, (R)-6-(2-amino-8H-indeno[1,2-d]thiazol-5-yl)-N-(4-(chlorodifluoromethoxy)phenyl)-4-methyl-3,4-dihydro-1H-benzo[4,5]imidazo[2,1-c][1,4]oxazine-8-carboxamide] | ≤ 5 nM | > 1000 nM | ≤ 5 nM | 5 to 50 nM |
| CC(=O)Nc1nc2c(s1)Cc1ccc(-c3cc(C(=O)Nc4ccc(OC(F)(F)Cl)cc4)cc4nc5n(c34)[C@H](C)COC5)cc1-2 [T-112, (R)-6-(2-acetamido-8H-indeno[1,2-d]thiazol-5-yl)-N-(4-(chlorodifluoromethoxy)phenyl)-4-methyl-3,4-dihydro-1H-benzo[4,5]imidazo[2,1-c][1,4]oxazine-8-carboxamide] | ≤ 5 nM | > 1000 nM | ≤ 5 nM | 5 to 50 nM |
| C[C@@H]1COCc2nc3cc(C(=O)Nc4ccc(OC(F)(F)Cl)cc4)cc(-c4ccc5c(c4)-c4ncsc4C5)c3n21 [T-113, (R)-N-(4-(chlorodifluoromethoxy)phenyl)-6-(8H-indeno[1,2-d]thiazol-5-yl)-4-methyl-3,4-dihydro-1H-benzo[4,5]imidazo[2,1-c][1,4]oxazine-8-carboxamide] | ≤ 5 nM | > 1000 nM | ≤ 5 nM | 5 to 50 nM |
| C[C@@H]1CCSc2nc3cc(C(=O)Nc4ccc(OC(F)(F)Cl)cc4)cc(-c4cnccn4)c3n21 [T-116, (R)-N-(4-(chlorodifluoromethoxy)phenyl)-4-methyl-6-(pyrazin-2-yl)-3,4-dihydro-2H-benzo[4,5]imidazo[2,1-c][1,3]thiazine-8-carboxamide] | ≤ 5 nM | > 1000 nM | ≤ 5 nM | 5 to 50 nM |
| CC(C)n1cnc2cc(C(=O)Nc3ccc(OC(F)(F)Cl)cc3)cc(-c3cnc4c(c3)-c3n[nH]cc3C4)c21 [T-119, N-(4-(chlorodifluoromethoxy)phenyl)-7-(2,4-dihvdropyrazolo[3',4':3,4]cyclopenta[1,2-b]pyridin-7-yl)-1-isopropyl-1H-benzo[d]imidazole-5-carboxamide] | ≤ 5 nM | > 1000 nM | ≤ 5 nM | 5 to 50 nM |
| CC(C)n1cnc2cc(C(=O)Nc3ccc(OC(F)(F)Cl)cc3)cc(-c3cnc4c(c3)-c3nn(-c5ncccn5)cc3C4)c21 [T-120, N-(4-(chlorodifluoromethoxy)phenyl)-1-isopropyl-7-(2-(pyrimidin-2-yl)-2,4-dihydropyrazolo[3',4':3,4]cyclopenta[1,2-b]pyridin-7-yl)-1H-benzo[d]imidazole-5-carboxamide] | ≤ 5 nM | > 1000 nM | ≤ 5 nM | ≤ 5 nM |
| CC(C)n1cnc2cc(C(=O)Nc3ccc(OC(F)(F)Cl)cc3)cc(-c3cnc4c(c3)-c3nn(-c5ncc(F)cn5)cc3C4)c21 [T-121, N-(4-(chlorodifluoromethoxy)phenyl)-7-(2-(5-fluoropyrimidin-2-yl)-2,4-dihydropyrazolo[3',4':3,4]cyclopenta[1,2-b]pyridin-7-yl)-1-isopropyl-1H-benzo[d]imidazole-5-carboxamide] | ≤ 5 nM | > 1000 nM | ≤ 5 nM | ≤ 5 nM |
| CC1(C)C(=O)Nc2cc(C(=O)Nc3ccc(OC(F)(F)Cl)cc3)cc(-c3cnc4c(c3)-c3n[nH]cc3C4)c21 [T-122, N-(4-(chlorodifluoromethoxy)phenyl)-4-(2,4-dihydropyrazolo[3',4':3,4]cyclopenta[1,2-b]pyridin-7-yl)-3,3-dimethyl-2-oxoindoline-6-carboxamide] | ≤ 5 nM | > 1000 nM | ≤ 5 nM | 5 to 50 nM |
| CC1(C)C(=O)Nc2cc(C(=O)Nc3ccc(OC(F)(F)Cl)cc3)cc(-c3cnc4c(c3)-c3nn(-c5ncccn5)cc3C4)c21 [T-123, N-(4-(chlorodifluoromethoxy)phenyl)-3,3-dimethyl-2-oxo-4-(2-(pyrimidin-2-yl)-2,4-dihydropyrazolo[3',4':3,4]cyclopenta[1,2-b]pyridin-7-yl)indoline-6-carboxamide] | ≤ 5 nM | > 1000 nM | ≤ 5 nM | ≤ 5 nM |
| CC1(C)C(=O)Nc2cc(C(=O)Nc3ccc(OC(F)(F)Cl)cc3)cc(-c3cnc4c(c3)-c3nn(-c5ncc(F)cn5)cc3C4)c21 [T-124, N-(4-(chlorodifluoromethoxy)phenyl)-4-(2-(5-fluoropyrimidin-2-yl)-2,4-dihydropyrazolo[3',4':3,4]cyclopenta[1,2-b]pyridin-7-yl)-3,3-dimethyl-2-oxoindoline-6-carboxamide] | ≤ 5 nM | > 1000 nM | ≤ 5 nM | ≤ 5 nM |
| O=C(Nc1ccc(OC(F)(F)Cl)cc1)c1cc2c(c(-c3cnc4c(c3)-c3n[nH]cc3C4)c1)C1(CCCCC1)C(=O)N2 [T-125, N-(4-(chlorodifluoromethoxy)phenyl)-4'-(2,4-dihydropyrazolo[3',4':3,4]cyclopenta[1,2-b]pyridin-7-yl)-2'-oxospiro[cyclohexane-1,3'-indoline]-6'-carboxamide] | ≤ 5 nM | > 1000 nM | ≤ 5 nM | 5 to 50 nM |
| O=C(Nc1ccc(OC(F)(F)Cl)cc1)c1cc2c(c(-c3cnc4c(c3)-c3nn(-c5ncccn5)cc3C4)c1)C1(CCCCC1)C(=O)N2 [T-126, N-(4-(chlorodifluoromethoxy)phenyl)-4'-(2-(pyrimidin-2-yl)-2,4-dihydropyrazolo[3',4':3,4]cyclopenta[1,2-b]pyridin-7-yl)-2'-oxospiro[cyclohexane-1,3'-indoline]-6'-carboxamide] | ≤ 5 nM | > 1000 nM | ≤ 5 nM | ≤ 5 nM |
| O=C(Nc1ccc(OC(F)(F)Cl)cc1)c1cc2c(c(-c3cnc4c(c3)-c3nn(-c5ncc(F)cn5)cc3C4)c1)C1(CCCCC1)C(=O)N2 [T-127, N-(4-(chlorodifluoromethoxy)phenyl)-4'-(2-(5-fluoropyrimidin-2-yl)-2,4-dihydropyrazolo[3',4':3,4]cyclopenta[1,2-b]pyridin-7-vl)-2'-oxospiro[cyclohexane-1,3'-indoline]-6'-carboxamide] | ≤ 5 nM | > 1000 nM | ≤ 5 nM | ≤ 5 nM |
| N#Cc1cnc(-n2cc3c(n2)-c2cc(-c4cc(C(=O)Nc5ccc(OC(F)(F)Cl)cc5)cnc4N4CC[C@@H](F)C4)cnc2C3)nc1 [T-128, (R)-N-(4-(chlorodifluoromethoxy)phenyl)-5-(2-(5-cyanopyrimidin-2-yl)-2,4-dihydropyrazolo[3',4':3,4]cyclopenta[1,2-b]pyridin-7-yl)-6-(3-fluoropyrrolidin-1-yl)nicotinamide] | ≤ 5 nM | > 1000 nM | ≤ 5 nM | ≤ 5 nM |
| N#Cc1ccnc(-n2cc3c(n2)-c2cc(-c4cc(C(=O)Nc5ccc(OC(F)(F)Cl)cc5)cnc4N4CC[C@@H](F)C4)cnc2C3)n1 [T-129, (R)-N-(4-(chlorodifluoromethoxy)phenyl)-5-(2-(4-cyanopyrimidin-2-yl)-2,4-dihydropyrazolo[3',4':3,4]cyclopenta[1,2-b]pyridin-7-yl)-6-(3-fluoropyrrolidin-1-yl)nicotinamide] | ≤ 5 nM | > 1000 nM | ≤ 5 nM | ≤ 5 nM |
| O=C(Nc1ccc(OC(F)(F)Cl)cc1)c1cnc(N2CC[C@@H](F)C2)c(-c2cnc3c(c2)-c2nn(-c4ncc(F)cn4)cc2C3F)c1 (stereo partly drawn) [T-130, N-(4-(chlorodifluoromethoxy)phenyl)-5-(4-fluoro-2-(5-fluoropyrimidin-2-yl)-2,4-dihydropyrazolo[3',4':3,4]cyclopenta[1,2-b]pyridin-7-yl)-6-((R)-3-fluoropyrrolidin-1-yl)nicotinamide] | ≤ 5 nM | > 1000 nM | ≤ 5 nM | ≤ 5 nM |
| O=C(Nc1ccc(OC(F)(F)Cl)cc1)c1cnc(N2CC[C@@H](F)C2)c(-c2cnc3c(c2)-c2c(cnn2-c2ncc(F)cn2)C3F)c1 (stereo partly drawn) [T-131, N-(4-(chlorodifluoromethoxy)phenyl)-5-(4-fluoro-1-(5-fluoropyrimidin-2-yl)-1,4-dihydrepyrazolo[3',4':3,4]cyclopenta[1,2-b]pyridin-7-yl)-6-((R)-3-fluoropyrrolidin-1-yl)nicotinamide] | 5 to 50 nM | > 1000 nM | 50 to 1000 nM | 50 to 1000 nM |

Reference: patent publication EP4768484A1, “HETEROCYCLIC FUSED RING COMPOUND, AND COMPOSITION AND USE THEREOF” (Shenzhen TargetRx, Inc., priority 2023, dated 2025)
